From article PMC2984425, “Safety and pharmacokinetics of novel selective vascular endothelial growth factor receptor-2 inhibitor YN968D1 in patients with advanced malignancies” (BMC Cancer, 2010)

Test system: patients with advanced solid tumors
Assay: Phase I dose escalation: MTD and DLT of oral once-daily apatinib
Assay type: in vivo
Description: The phase I study was designed in accordance with the Chinese State Food and Drug Administration (SFDA) recommendations (Guidance for Industry, 2005). PK evaluations were to be performed for single-dosing and multiple-dosing of which the dose levels were determined after completion of dose-escalation. Three dose levels (low, intermediate and high dose) for single-dosing and one dose level (the recommended dose for phase II) for multiple-dosing study, between 8 to 12 participants for each dose levels, were required to meet the SFDA guidance. A cross-over design to evaluate the effects of food intake was incorporated into the single-dosing assessment, also meeting the SFDA requirement, but data will be presented separately.
Apatinib was provided by Advenchen Laboratories, LLC (Northridge, CA, USA) as capsule to be administered orally daily. A safe starting dose was determined in accordance with SFDA recommendations (Guidance for Industry 2005) following a previously established maximum-tolerated dose (MTD) in dogs for YN968D1 of above 30 mg/kg. Thus, in compliance with the SFDA's recommendation, the starting dose was determined to be 250 mg/day, corresponding to one-fourth of the MTD in dogs. (ClinicalTrials.gov number: NCT00633490).
Dose-escalation cohorts enrolled three to six patients. Intrapatient dose escalation was not allowed. […]

N#CC1(c2ccc(NC(=O)c3cccnc3NCc3ccncc3)cc2)CCCC1 [apatinib]
recommended (phase II) dose (human, in vivo, 4 weeks): 750 mg
maximum tolerated dose (MTD) (oral, once daily, patients): 850 mg
